In US5116815A, “PF 1022 substance, method of treating helminthic parasitic infection and anthelmintic composition” (Meiji Seika Kaisha Ltd., priority 1989, dated 1992):
Values joined by “and” are separate entries in the source; they are usually repeats but may differ in a detail not shown here. Equal values may be shown once.

Key:
Assay type in all cases: in vivo
[1] = Oral toxicity in mice (body weight gain, abnormalities); conditions: 300 mg/kg
[2] = test system: large intestinal roundworms (Ascaris suum); experiment: Anthelmintic activity against swine large intestinal roundworms; conditions: oral in feed; for Number of remaining worms: autopsy one week; for EPG Before administration: baseline; for EPG Upon autopsy: one week
Protocol: The anthelmintic effect of the PF 1022 substance in swine was evaluated by orally administering the substance to swine found to be infected with large intestinal roundworms (Ascaris suum) by scatoscopy.
The PF 1022 substance was administered either once at 5 mg/kg or 10 mg/kg, or at a daily dose of 1.25 mg/kg, 2.5 mg/kg or 5 mg/kg once daily for consecutive 2 days by admixing an amount of the substance as such equal to each dose with a small portion of the ordinary feed. After administration, the worms eliminated were counted and the feces examined for the number of roundworm eggs per gram of feces (EPG) daily. One week after commencement of administration, the animals were sacrificed and autopsied for counting the worms remaining in the intestinal tract.

[3] = test system: whipworms (Trichuris suis); experiment: Anthelmintic activity against swine whipworms; conditions: oral in feed; for Number of remaining worms: autopsy one week; for EPG Before administration: baseline; for EPG Upon autopsy: one week
Protocol: The PF 1022 substance was evaluated for its anthelmintic effect on swine whipworms by orally administering it to swine found to be infected with whipworms (Trichuris suis) by scatoscopy.
The PF 1022 substance was administered either once at 1 mg/kg, 5 mg/kg or 10 mg/kg, or at a daily dose of 2.5 mg/kg or 5 mg/kg once daily for 2 consecutive days by admixing an amount of the substance as such equal to each dose with a small portion of the ordinary feed. After administration, the number of whipworm eggs in the feces of each animal was determined daily in terms of EPG. In three animals, the worms eliminated were counted as well. One week after initiation of administration, all the animals were sacrificed and autopsied and the worms remaining in the intestinal tract were counted.

[4] = test system: feline roundworms (Toxocara cati); experiment: Anthelmintic activity against cat large intestinal roundworms; conditions: cats
Protocol: The PF 1022 substance was evaluated for its anthelmintic effect on feline roundworms (Toxocara cati) by orally administering the substance once to 12 cats found to be infected with the roundworms by scatoscopy.
The infected cats were used in three groups of 4 animals and given 0.2 mg/kg, 1 mg/kg and 5 mg/kg of the substance, respectively, admixed as such with a small portion of ordinary feed. The observation items were the number of roundworms eliminated during the 7 day observation period following administration and the number of remaining roundworms as found upon autopsy performed 7 days after administration.

[5] = test system: strongyles (Strongylus spp.); experiment: Anthelmintic effect on equine strongyles; conditions: horse, oral 5 mg/kg Day 0 and 2.5 mg/kg Day 1
Protocol: The PF 1022 substance was evaluated for its anthelmintic effect in a horse found by scatoscopy to be infected with roundworms (Parascaris equorum) and strongyles (Strongylus spp.) by orally administering the substance thereto.
The PF 1022 substance was suspended in water and administered with a stomach catheter at 5 mg/kg on the first day and at 2.5 mg/kg on the second day. For both the roundworms and strongyles, parasite eggs in each gram of feces (EPG) as well as parasites eliminated were counted daily for one week following the first administration. For strongyles, the number of worms in 100 g of feces was determined.

[6] = test system: large intestinal roundworms (Ascaridia galli); experiment: Chicken large intestinal roundworms, administration in feed for 3 weeks; conditions: chickens; for Number of eggs before starting administration: baseline
Protocol: The PF 1022 substance was evaluated for its anthelmintic effect on 9 chickens found, by scatoscopy, to be infected with large intestinal roundworms (Ascaridia galli) by administering it in admixture with the feed.
The chickens were divided into three groups of 3 animals, which served as the 1 ppm, 5 ppm and 10 ppm groups. The feed containing the PF 1022 substance in each concentration mentioned above was given to the chickens for 3 weeks. Parasite eggs in feces were counted at one-week intervals in terms of EPG and worms eliminated were counted daily. At the end of the administration period, the chickens were sacrificed and autopsied and the worms remaining therein were counted.

[7] = test system: roundworms (Toxocara canis); experiment: Anthelmintic effect on canine roundworms; conditions: dog, single oral dose 5 mg/kg
Protocol: (§1) The PF 1022 substance was evaluated for its anthelmintic effect in dogs by orally administering it to dogs found to be infected with roundworms (Toxocara canis), hookworms (Ancylostoma caninum) and whipworms (Trichuris vulpisl), respectively, by scatoscopy.
(§2) The substance was orally administered once at the dose of 5 mg/kg to a dog infected with the roundworms or hookworms by admixing the substance with a small portion of the ordinary feed, and the worms eliminated and those remaining in the dog during 7 days following administration were counted.

[8] = test system: hookworms (Ancylostoma caninum); experiment: Anthelmintic effect on canine hookworms; conditions: dog, single oral dose 5 mg/kg
Protocol: as §1, §2

[9] = 2 administrations, 1.25 mg/kg/administration, 1.25 mg/kg
[10] = 2 administrations, 2.5 mg/kg/administration
[11] = 2 administrations, 5 mg/kg/administration

CC(C)C[C@H]1C(=O)O[C@H](Cc2ccccc2)C(=O)N(C)[C@@H](CC(C)C)C(=O)O[C@H](C)C(=O)N(C)[C@@H](CC(C)C)C(=O)O[C@H](Cc2ccccc2)C(=O)N(C)[C@@H](CC(C)C)C(=O)O[C@H](C)C(=O)N1C [PF 1022 substance]
body weight gains and abnormalities [1]: normal body weight gains are obtained without any abnormalities | Number of worms eliminated ([2]; 1 administration, 5 mg/kg): 12 | Number of remaining worms ([2]; 1 administration, 5 mg/kg): 13 | EPG Before administration ([2]; 1 administration, 5 mg/kg): 99000 | EPG Upon autopsy ([2]; 1 administration, 5 mg/kg): 8000 | Number of worms eliminated ([2]; 1 administration, 10 mg/kg): 7 | Number of remaining worms ([2]; 1 administration, 10 mg/kg): 5 | EPG Before administration ([2]; 1 administration, 10 mg/kg): 2100 | EPG Upon autopsy ([2]; 1 administration, 10 mg/kg): 200 | Number of worms eliminated ([2]; 2 administrations, 1.25 mg/kg/administration): 2 | % Elimination [2, 9]: 18.2% and 33.3% | EPG Before administration [2, 9]: 2300 and 1800 | Number of remaining worms [2, 10]: 1 | EPG Before administration ([2]; 2 administrations, 2.5 mg/kg/administration, 2.5 mg/kg): 3300 and 3800 | EPG Upon autopsy [2, 10]: 0 | % Elimination [2, 11]: 100% | Number of worms eliminated [2, 11]: 13 | Number of remaining worms [2, 11]: 0 | EPG Before administration [2, 11]: 2700 | EPG Upon autopsy [2, 11]: 0 | % Elimination ([3]; 1 administration, 1 mg/kg): 4.0% | Number of worms eliminated ([3]; 1 administration, 1 mg/kg): 14 | Number of remaining worms ([3]; 1 administration, 1 mg/kg): 334 | EPG Before administration ([3]; 1 administration, 1 mg/kg): 5500 | EPG Upon autopsy ([3]; 1 administration, 1 mg/kg): 1200 | % Elimination ([3]; 1 administration, 10 mg/kg): 100% | Number of remaining worms ([3]; 1 administration, 10 mg/kg): 0 | EPG Before administration ([3]; 1 administration, 10 mg/kg): 1800 | EPG Upon autopsy ([3]; 1 administration, 10 mg/kg): 0 | % Elimination [3, 10]: 100% | EPG Upon autopsy [3, 10]: 0 | % Elimination [3, 11]: 100% | Number of remaining worms [3, 11]: 0 | EPG Before administration [3, 11]: 100 | EPG Upon autopsy [3, 11]: 0 | % Elimination ([4]; single oral dose 0.2 mg/kg, 0.2 mg/kg): 100% and 50.0% | % Elimination ([4]; single oral dose 1 mg/kg, 1 mg/kg): 100% and 80.0% | % Elimination ([4]; single oral dose 5 mg/kg): 100% | Number of remaining worms ([4]; single oral dose 5 mg/kg, autopsy 7 days): 0 | EPG ([5]; Day 0): 265 | Number of worms eliminated ([5]; Day 0): 0 per 100 g feces | EPG ([5]; Day 1): 82 | Number of worms eliminated ([5]; Day 1): 82 per 100 g feces | EPG ([5]; Day 2): 0.6 | Number of worms eliminated ([5]; Day 2): 0 per 100 g feces | EPG ([5]; Day 3): 0.4 | Number of worms eliminated ([5]; Day 3): 0 per 100 g feces | EPG ([5]; Day 4): 0 | Number of worms eliminated ([5]; Day 4): 0 per 100 g feces | EPG ([5]; Day 5): 0 | Number of worms eliminated ([5]; Day 5): 0 per 100 g feces | EPG ([5]; Day 6): 0.2 | Number of worms eliminated ([5]; Day 6): 0 per 100 g feces | Number of worms eliminated ([5]; Day 7): 0 per 100 g feces | Number of worms remaining ([6]; 1 ppm in feed for 3 weeks, autopsy): 49 and 96 and 83 | Number of eggs before starting administration ([6]; 1 ppm in feed): > 300 and 172 | % Elimination ([6]; 5 ppm in feed for 3 weeks): 86.1% and 56.9% and 62.5% | Number of eggs before starting administration ([6]; 5 ppm in feed): 300 and > 300 and 158 | Number of worms eliminated ([6]; 10 ppm in feed for 3 weeks): 44 and 55 and 45 | Number of eggs before starting administration ([6]; 10 ppm in feed): 300 and > 300 and 176 | elimination [7]: 100% | roundworms eliminated ([7]; 7 days): six | roundworms remaining ([7]; 7 days): no roundworms were found remaining | elimination [8]: 100% | hookworms eliminated ([8]; 7 days): Twelve | hookworms remaining ([8]; 7 days): no hookworms were found remaining
